By GI50 is commonly meant the concentration giving 50% growth inhibition.

Here are results for eleven compounds from ChEMBL document CHEMBL1201862, “PubChem BioAssay data set” (2004).

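Each compound was tested at five concentrations against cells in 96-well plates for 48 hours. At the GI50, growth is halved.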 Calls of active or inactive are those of the source. No stated cut-off is given here; in the data, active = GI50 up to about 1.1 µM and inactive = higher.

Test systems include SK-MEL-5; Hs-578T; HCT-15; COLO 205; SW-620; SR; UACC-257; MCF7; SK-MEL-2; KM12; HCT-116; T47D; CAKI-1; PC-3; CCRF-CEM; BT-549; IGROV-1; RXF 393; UO-31; HL-60.
Common to all, as to assay: DTP human tumour cell line panel, 48 h

Turning to `O=C(O)Cn1cnc2c(O)nc(Nc3ccccc3)nc21`, the GI50 in the assay on SK-MEL-5 is > 100 µM (inactive); with Hs-578T it was > 100 µM (inactive); with HCT-15 it was above 100 µM; in the assay with COLO 205, > 100 µM (inactive); in the assay with SW-620, > 100 µM (inactive); with SR it was > 100 µM (inactive). For the same compound, the GI50 in the assay on UACC-257, in the assay on MCF7, with SK-MEL-2, with KM12, in the assay on HCT-116 and in the assay with T47D was > 100 µM (inactive) throughout. Moreover, the GI50 with CAKI-1, in the assay with PC-3, in the assay with CCRF-CEM, in the assay on BT-549 and with IGROV-1 was > 100 µM (inactive) each time.
On to `O=C(O)C(Cc1ccccc1-c1ccccc1)C(=O)O`, for which the GI50 in the assay on SK-MEL-5 is > 100 µM (inactive); with Hs-578T, > 100 µM (inactive); with HCT-15 it was above 100 µM; in the assay with COLO 205, > 100 µM (inactive); in the assay with SW-620, > 100 µM (inactive); with RXF 393 it was > 100 µM (inactive). Moreover, the GI50 with SR, in the assay with UACC-257, with MCF7, with SK-MEL-2, with KM12 and in the assay with HCT-116 was > 100 µM (inactive) in each case. Besides, the GI50 in the assay with UO-31, in the assay on T47D, with CAKI-1, with PC-3, in the assay with BT-549 and with IGROV-1 was > 100 µM (inactive) in each case.
Take `O=C1C=CC2(O[C@H](c3ccccc3)[C@@H](c3ccccc3)O2)[C@H](Sc2ccccc2O)C1`: the GI50 was 0.993 µM (active) in the assay on SK-MEL-5; 0.836 µM (active) in the assay on Hs-578T; 0.221 µM in the assay on HCT-15; 0.499 µM (active) in the assay on COLO 205; 0.0824 µM (active) in the assay on SW-620; 0.238 µM (active) with RXF 393. Moreover, the concentration for 50% growth inhibition (GI50) in the assay with UACC-257 was 0.658 µM (active); in the assay with MCF7, 0.27 µM (active); in the assay on SK-MEL-2, 2.02 µM (inactive); with HL-60, 0.264 µM (active); in the assay with KM12 it was 1.98 µM (inactive); in the assay on HCT-116, 0.122 µM (active). The GI50 in the assay with UO-31 was 0.665 µM (active); in the assay on T47D, 0.785 µM (active); in the assay with CAKI-1, 0.34 µM (active); with PC-3 it was 0.7 µM (active); with CCRF-CEM, < 0.0156 µM (active); in the assay on BT-549 it was 0.502 µM (active). For the same compound, the concentration for 50% growth inhibition (GI50) in the assay with IGROV-1 was 0.281 µM (active).
As to `CC[C@@]1(OC(=O)C(N)CCC(=O)O)C(=O)OCc2c1cc1n(c2=O)Cc2cc3ccccc3nc2-1` (stereo partly drawn), the GI50 with SK-MEL-5 was 0.0736 µM (active); with Hs-578T, 7.05 µM (inactive); with HCT-15, 0.453 µM; with COLO 205 it was 0.667 µM (active); with SW-620, 0.179 µM (active); in the assay with RXF 393 it was 0.147 µM (active). The concentration for 50% growth inhibition (GI50) is 0.228 µM (active) in the assay on UACC-257; < 0.01 µM (active) with MCF7; 1.12 µM (active) in the assay with SK-MEL-2; 0.0208 µM (active) in the assay on HL-60; 0.122 µM (active) with HCT-116; 0.0493 µM (active) in the assay with UO-31. Also, the concentration for 50% growth inhibition (GI50) was 0.0267 µM (active) with T47D; < 0.0182 µM (active) in the assay with CAKI-1; 0.194 µM (active) with PC-3; < 0.01 µM (active) with CCRF-CEM; 0.733 µM (active) with BT-549; 0.513 µM (active) in the assay on IGROV-1.
On to `COC(=O)/C(=C\c1ccco1)P(=O)(OC)OC`, for which the GI50 in the assay on SK-MEL-5 is 62.4 µM (inactive); in the assay on Hs-578T, 54.1 µM (inactive); in the assay with HCT-15, 75.5 µM; in the assay with COLO 205, > 100 µM (inactive); in the assay on SW-620, 89.5 µM (inactive); in the assay with RXF 393, 24.4 µM (inactive). Besides, the GI50 with SR is 52.8 µM (inactive); in the assay on UACC-257, 65.8 µM (inactive); with MCF7, 17.4 µM (inactive); in the assay with SK-MEL-2 it was 30.9 µM (inactive); with KM12, > 100 µM (inactive); in the assay with HCT-116 it was 44 µM (inactive). Besides, the GI50 in the assay on T47D was > 100 µM (inactive); in the assay with CAKI-1, 25.2 µM (inactive); in the assay with PC-3 it was 73.5 µM (inactive); with CCRF-CEM it was 30.5 µM (inactive); in the assay on BT-549 it was 26.6 µM (inactive); with IGROV-1, > 100 µM (inactive).
`CN(C)c1ccc(/C=C(\NC(=O)c2ccccc2)C(=O)NC(Cc2c[nH]c3ccccc23)C(=O)O)cc1` (stereo not drawn): the GI50 in the assay with SK-MEL-5 is > 100 µM (inactive); in the assay on Hs-578T, > 100 µM (inactive); in the assay on HCT-15, above 100 µM; in the assay with COLO 205 it was > 100 µM (inactive); in the assay with SW-620, > 100 µM (inactive); in the assay with RXF 393, > 100 µM (inactive). Also, the GI50 in the assay with UACC-257 is 69 µM (inactive); in the assay with MCF7, > 100 µM (inactive); in the assay on SK-MEL-2, > 100 µM (inactive); in the assay on HL-60, > 100 µM (inactive); in the assay with KM12, > 100 µM (inactive); with HCT-116, > 100 µM (inactive). Also, the GI50 in the assay on UO-31, with T47D, in the assay on CAKI-1, with PC-3, with CCRF-CEM and in the assay on BT-549 was > 100 µM (inactive) throughout. The GI50 in the assay on IGROV-1 is > 100 µM (inactive).
For the compound `NCCCCCCn1c(-c2ccc(Br)cc2)cs/c1=N\c1ccccc1`, the GI50 with SK-MEL-5 is 10.1 µM (inactive); with Hs-578T it was 13.1 µM (inactive); in the assay on HCT-15, 7.74 µM; in the assay on COLO 205 it was 1.79 µM (inactive); with SW-620, 4.28 µM (inactive); in the assay on RXF 393, 10.9 µM (inactive). Besides, the GI50 with SR is 3.51 µM (inactive); with UACC-257, 15.2 µM (inactive); with MCF7, 5.21 µM (inactive); with SK-MEL-2 it was 18.6 µM (inactive); in the assay with KM12, 5.74 µM (inactive); in the assay on HCT-116, 4.09 µM (inactive). Further, the GI50 in the assay on UO-31 is 10.4 µM (inactive); in the assay with T47D it was 5.08 µM (inactive); with CAKI-1 it was 14.6 µM (inactive); in the assay on PC-3, 5.86 µM (inactive); in the assay on CCRF-CEM, 6.9 µM (inactive); in the assay on BT-549 it was 13.8 µM (inactive).
For `COc1ccc(C(O)c2ccccn2)cc1` (stereo not drawn), the GI50 with SK-MEL-5 is > 100 µM (inactive); in the assay with Hs-578T it was > 100 µM (inactive); with HCT-15, above 100 µM; with COLO 205, > 100 µM (inactive); in the assay with SW-620 it was > 100 µM (inactive); with RXF 393 it was > 100 µM (inactive). Also, the GI50 with SR, with UACC-257, with MCF7, with SK-MEL-2, in the assay with KM12 and with HCT-116 was > 100 µM (inactive) throughout. Besides, the GI50 in the assay on T47D, in the assay with CAKI-1, in the assay on PC-3, in the assay on BT-549 and in the assay with IGROV-1 was > 100 µM (inactive) throughout.
With `N#CC1(C#N)C2CCCCC23OC(=N)C1(C#N)C(c1ccccc1)O3` (stereo not drawn), the GI50 with SK-MEL-5 was 16.1 µM (inactive); with Hs-578T it was 0.302 µM (active); in the assay on HCT-15 it was 12.4 µM; in the assay on COLO 205 it was 13.4 µM (inactive); in the assay with SW-620 it was 14.8 µM (inactive); in the assay on RXF 393 it was 31.8 µM (inactive). Also, the GI50 in the assay with UACC-257 was 18 µM (inactive); with MCF7, 16.6 µM (inactive); with SK-MEL-2 it was 20.2 µM (inactive); in the assay with KM12, 8.49 µM (inactive); in the assay with HCT-116, 17 µM (inactive); in the assay on UO-31, 34.8 µM (inactive). The GI50 in the assay with T47D was 17.5 µM (inactive); in the assay with CAKI-1, 10.8 µM (inactive); in the assay with PC-3, 21.4 µM (inactive); in the assay with CCRF-CEM it was 5.24 µM (inactive); in the assay with BT-549, 16.8 µM (inactive); in the assay on IGROV-1 it was 19 µM (inactive).
Turning to `Cc1ccc(-n2nnc(C(N)=O)c2O)cc1`, the GI50 with SK-MEL-5 is > 100 µM (inactive); in the assay with Hs-578T, > 100 µM (inactive); in the assay on HCT-15 it was above 100 µM; in the assay on COLO 205, > 100 µM (inactive); with SW-620, > 100 µM (inactive); in the assay with RXF 393, > 100 µM (inactive). For the same compound, the GI50 in the assay on UACC-257, in the assay on MCF7, in the assay on HL-60, in the assay on KM12, in the assay on HCT-116 and in the assay on UO-31 was > 100 µM (inactive) in each case. The GI50 with T47D, with CAKI-1, in the assay on PC-3, in the assay on CCRF-CEM, in the assay with BT-549 and with IGROV-1 was > 100 µM (inactive) in each case.
Take `CC(=O)O[C@H]1C[C@H](O[C@H]2[C@@H](O)C[C@H](O[C@H]3[C@@H](O)C[C@H](O[C@H]4CC[C@@]5(C)[C@H](CC[C@@H]6[C@@H]5CC[C@]5(O)[C@@H](C7=CC(=O)OC7)CC[C@]65O)C4)O[C@@H]3C)O[C@@H]2C)O[C@H](C)[C@H]1O[C@@H]1O[C@H](CO)[C@@H](O)[C@H](O)[C@H]1O`: the concentration for 50% growth inhibition (GI50) with SK-MEL-5 is 0.223 µM (active); in the assay on Hs-578T, 0.348 µM (active); in the assay on HCT-15, 0.293 µM; in the assay with COLO 205, 0.711 µM (active); with SW-620, 0.407 µM (active); in the assay on UACC-257 it was 0.597 µM (active). Also, the GI50 was 0.52 µM (active) with MCF7; 0.498 µM (active) with SK-MEL-2; 0.223 µM (active) in the assay with HL-60; 0.565 µM (active) in the assay with KM12; 0.243 µM (active) with HCT-116; 0.391 µM (active) in the assay with UO-31. Moreover, the concentration for 50% growth inhibition (GI50) with T47D was 0.553 µM (active); in the assay on CAKI-1 it was 0.132 µM (active); with PC-3, 0.328 µM (active); with CCRF-CEM, 0.116 µM (active); in the assay on BT-549 it was 0.304 µM (active); in the assay on IGROV-1, 0.356 µM (active).
